{"source": "patent US11730836B2", "about": "“Synergistic cancer treatment” (priority 2018, dated 2023)", "test_system": "CAPAN-1 xenografts", "experiment": "CAPAN-1 xenografts, BRCA 2 deficient (−/−) compared with not deficient (+/+): single dose PLX038A or irinotecan, tumor volume", "type": "in vivo, mice", "details": "irinotecan 137 μg/kg single i.p.; FIGS. 4B vs 4C", "protocol": "Female NCr nude mice (N CrTac:NCr-Foxnt1^nu; ˜6-7 weeks old) from Taconic Bioscience (Cambridge City, Ind.) were housed at the UCSF Preclinical Therapeutics Core vivarium (San Francisco, Calif.). All animal studies were carried out in accordance with UCSF Institutional Animal Care and Use Committee. Tumor xenografts were established by subcutaneous injection with MX-1 tumor cells (2×10^6 cells in 100 μl of serum free medium mixed 1:1 with Matrigel) into the right flank of female NCr nude mice.\nGroups (N=4-5/group) were dosed when the group average reached 100-200 mm^3 in size. […] For groups receiving the combination, daily BMN673 dosing began on the same day (FIG. 3A) or after a 4-day delay (FIG. 3B) after dosing PLX038A. Tumor volumes (caliper measurement: 0.5×(length×width^2)) and body weights were measured twice weekly. When vehicle control tumors reached ˜3000 mm^3 in size, mice were treated with the combination of a single dose of PLX038A (15 μmol/kg) and daily BMN673 (0.4 μmol/kg) combination with no delay between dosing (FIG. 3A).\nMX-1 cells are BRCA 1 deficient and CAPAN-1 cells are supplied as either BRCA 2 deficient (−/−) or not deficient (+/+).", "data": [{"smiles": "CCc1c2c(nc3ccc(OC(=O)N4CCC(N5CCCCC5)CC4)cc13)-c1cc3c(c(=O)n1C2)COC(=O)[C@]3(O)CC", "note": "[irinotecan]", "values": [{"measurement": "effectiveness in BRCA 2 deficient vs non-deficient cells, irinotecan", "result": "enhanced"}]}]}
